Data from patent US20240207267A1, “(R)-Glutarimide CRBN Ligands and Methods of Use” (BeiGene Switzerland GmbH, priority 2021, published 2024).
Where two headings read alike, the source gives them in different places. Blank lines part the entries; values can stand above or below the compound they belong to.

Legend:
CRBN&DDB1 protein = CRBN&DDB1 protein (Homo sapiens (Human), UniProt Q96SW2); assay: CRBN&DDB1 HTRF (TR-FRET) assay, blocking binding of biotin labeled thalidomide; conditions: CRBN&DDB1 protein (His Tag), 30 nM biotin labeled thalidomide
Description: Biochemical potency of compound was determined by using CRBN& DDB1 protein (His Tag). Compounds were tested for blocking the binding of CRBN&DDB1 protein (CRBN, aa 40-442, DDB1, 1-1140, Viva Biotech) with biotin labeled thalidomide in an assay based on the time-resolved fluorescence-resonance energy transfer (TR-FRET) methodology. The assay was carried out in 384-well low volume black plates in a reaction mixture containing CRBN& DDB1 protein, 30 nM biotin labeled thalidomide and 0-10 μM compound in buffer containing 50 mM HEPES pH7.5, 50 mM NaCl, 0.01% BSA, 1 mM DTT and 0.015% Brij-35. The protein was preincubated with compound for 60 minutes at room temperature and biotin labeled thalidomide was added to plate. After further incubation at room temperature for 60 minutes detection reagents Mab Anti-6His Eu cryptate Gold (Cisbio, Cat #61HI2KLB) and Streptavidin-XL665 (Cisbio, Cat #610SAXLG) were added to plate. Plates were sealed and incubated at room temperature for 1 hour, and the TR-FRET signals (ex337 nm, em665 nm/620 nm) were recorded on a PHERAstar FSX plate reader (BMG Labtech). The inhibition percentage of CRBN& DDB1 protein interaction with biotin labeled thalidomide in presence of increasing concentrations of compounds was calculated based on the ratio of fluorescence at 665 nm to that at 620 nm. IC50 was derived from fitting the dose-response % inhibition data to the four-parameter logistic model by Dotmatics.
Four-parameter logistic equation: Y=Bottom+(Top−Bottom)/(1+10^((LogIC50−X) *HillSlope)). While X is Log of compound concentration. Y is % inhibition at X. Bottom is the bottom of the curve effect. Top is the top of the curve effect. HillSlope is the hill slope factor.

[1] = test system: EGFR Del19/T790M/C797S (BaF3-DTC cells); assay: EGFR degradation HTRF assay in BaF3-DTC cells; assay type: cell-based; conditions: 16 h treatment, Table 1; for DTC Dmax: maximum percentage of degradation
Description: (§1) BaF3-LTC(L858R/T790M/C797S) and BaF3-DTC(Del19/T790M/C797S) cells are treated with compounds diluted in 0.2% DMSO cell culture medium and incubate for 16 h, 37° C., 5% CO2, H1975- #28 cells are treated with compounds diluted in 0.2% DMSO cell culture medium on day 2, incubate for 16 h, 37° C., 5% CO2. the final concentration of compounds in all assay is start with 10 uM, 5-fold dilution, total 8 doses were included.
(§2) After 16 h treatment, add HTRF lysis buffer to each well; seal the plate and incubate 1 hour at room temperature on a plate shaker; Once the cells are lysed, 16 μL of cell lysate are transferred to a PE 384-well HTRF detection plate; 4 μL of pre-mixed HTRF antibodies are added to each well; Cover the plate with a plate sealer, spin 1000 rpm for 1 min, Incubate overnight at room temperature; Read on BMG PheraStar with HTRF protocol (337 nm-665 nm-620 nm).
(§3) The IC50 (DC50) value of a compound can be obtained by fitting the following equation
(§4) Y=Bottom+(TOP−Bottom)/(1+((IC50/X)^hillslope))
(§5) Wherein, X and Y are known values, and IC50, Hillslope, Top and Bottom are the parameters obtained by fitting with software. Y is the inhibition percentage (calculated from the equation), X is the concentration of the compound; IC50 is the concentration of the compound when the 50% inhibition is reached. The smaller the IC50 value is, the stronger the inhibitory ability of the compound is. Vice versa, the higher the IC50 value is, the weaker the ability the inhibitory ability of the compound is; Hillslope represents the slope of the fitted curve, generally around 1*; Bottom represents the minimum value of the curve obtained by data fitting, which is generally 0%±20%; Top represents the maximum value of the curve obtained by data fitting, which is generally 100%±20%. The experimental data were fitted by calculating and analyzing with Dotmatics data analysis software.

[2] = molecular target: EGFR L858R/T790M/C797S (BaF3-LTC cells) (Homo sapiens (Human), UniProt P00533, C797S/L858R/T790M); assay: EGFR degradation HTRF assay in BaF3-LTC cells; assay type: cell-based; conditions: 16 h treatment; for Dmax: maximum percentage of degradation
Description: as §1, §2, §3, §4, §5

[3] = test system: EGFR Del19/T790M/C797S (H1975-clone #28 cells); assay: EGFR degradation HTRF assay in H1975-clone #28 cells; assay type: cell-based; conditions: H1975-clone #28(Del19/T790M/C797S) cells, 16 h treatment, Table 2; for DC50: read-out: H1975 # 28 DTC DC50; for H1975 # 28 DTC Dmax: maximum percentage of degradation
Description: H1975-clone #28(Del19/T790M/C797S) was stably expressed in H1975 cell lines (from ATCC) by lentivirus-mediated over-expression. The EGFR over-expressed cells then underwent gene knockout, in which the EGFR targeting sgRNA was designed to only target the endogenous EGFR copies and preserve the exogenous EGFR copies. Followed by the gene knockout, the edited H1975 cells were seeded in 96 well plates at the concentration of […], cultured for about 2 weeks to allow single clones formation. The formed clones were screened by DNA sequencing and whole exon sequencing analysis for the desired edition. H1975-clone #28 was finally confirmed as homozygous Del19/T790M/C797S EGFR clone
as §1, §2, §3, §4, §5

[4] = Table 2, read-out: BaF3-LTC DC50

EGFR L858R/T790M/C797S (BaF3-LTC cells), sequence (P00533 25-1210 T790M/C797S/L858R): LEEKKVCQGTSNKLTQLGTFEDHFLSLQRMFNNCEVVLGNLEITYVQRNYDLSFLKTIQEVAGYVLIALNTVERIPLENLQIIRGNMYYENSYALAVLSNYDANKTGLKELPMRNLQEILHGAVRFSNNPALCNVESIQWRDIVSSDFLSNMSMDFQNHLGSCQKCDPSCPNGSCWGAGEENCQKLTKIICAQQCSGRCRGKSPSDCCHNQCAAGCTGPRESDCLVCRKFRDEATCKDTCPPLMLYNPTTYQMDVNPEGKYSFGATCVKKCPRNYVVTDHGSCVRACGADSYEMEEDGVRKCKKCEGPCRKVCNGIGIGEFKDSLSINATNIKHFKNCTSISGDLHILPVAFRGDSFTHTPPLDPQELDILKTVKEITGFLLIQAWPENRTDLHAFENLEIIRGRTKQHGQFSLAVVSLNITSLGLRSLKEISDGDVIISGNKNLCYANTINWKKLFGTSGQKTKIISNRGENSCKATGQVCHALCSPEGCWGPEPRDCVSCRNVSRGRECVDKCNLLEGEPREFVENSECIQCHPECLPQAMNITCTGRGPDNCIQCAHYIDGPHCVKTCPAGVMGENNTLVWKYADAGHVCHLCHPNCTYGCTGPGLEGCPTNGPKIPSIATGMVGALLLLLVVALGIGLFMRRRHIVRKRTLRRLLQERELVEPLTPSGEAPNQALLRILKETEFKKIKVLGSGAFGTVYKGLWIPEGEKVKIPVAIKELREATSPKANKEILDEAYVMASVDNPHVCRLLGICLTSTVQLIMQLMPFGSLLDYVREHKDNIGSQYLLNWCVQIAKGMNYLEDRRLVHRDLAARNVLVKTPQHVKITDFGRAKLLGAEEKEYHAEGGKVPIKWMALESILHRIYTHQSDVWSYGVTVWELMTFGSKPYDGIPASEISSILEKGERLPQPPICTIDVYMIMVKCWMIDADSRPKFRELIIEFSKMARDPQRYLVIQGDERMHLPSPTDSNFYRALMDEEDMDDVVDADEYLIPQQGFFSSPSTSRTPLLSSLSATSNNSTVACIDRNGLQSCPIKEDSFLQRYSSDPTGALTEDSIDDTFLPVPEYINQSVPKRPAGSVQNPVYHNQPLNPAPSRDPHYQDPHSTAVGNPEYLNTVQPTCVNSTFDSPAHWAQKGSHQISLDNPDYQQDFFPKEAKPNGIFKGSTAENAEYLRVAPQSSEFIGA
CRBN&DDB1 protein, sequence (Q96SW2 40-442): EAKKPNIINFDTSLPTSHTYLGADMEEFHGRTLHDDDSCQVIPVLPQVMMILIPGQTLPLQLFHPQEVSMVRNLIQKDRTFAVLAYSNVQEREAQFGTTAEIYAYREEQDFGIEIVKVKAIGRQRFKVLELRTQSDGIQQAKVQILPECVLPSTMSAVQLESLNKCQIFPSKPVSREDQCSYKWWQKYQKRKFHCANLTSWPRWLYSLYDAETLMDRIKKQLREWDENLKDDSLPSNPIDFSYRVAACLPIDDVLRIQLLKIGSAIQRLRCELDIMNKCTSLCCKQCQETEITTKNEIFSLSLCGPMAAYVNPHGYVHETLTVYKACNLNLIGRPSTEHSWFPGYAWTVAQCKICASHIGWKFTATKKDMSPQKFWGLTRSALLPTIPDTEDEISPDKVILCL
CRBN&DDB1 protein, sequence (Q16531 whole entry partner, the tested form may be a part): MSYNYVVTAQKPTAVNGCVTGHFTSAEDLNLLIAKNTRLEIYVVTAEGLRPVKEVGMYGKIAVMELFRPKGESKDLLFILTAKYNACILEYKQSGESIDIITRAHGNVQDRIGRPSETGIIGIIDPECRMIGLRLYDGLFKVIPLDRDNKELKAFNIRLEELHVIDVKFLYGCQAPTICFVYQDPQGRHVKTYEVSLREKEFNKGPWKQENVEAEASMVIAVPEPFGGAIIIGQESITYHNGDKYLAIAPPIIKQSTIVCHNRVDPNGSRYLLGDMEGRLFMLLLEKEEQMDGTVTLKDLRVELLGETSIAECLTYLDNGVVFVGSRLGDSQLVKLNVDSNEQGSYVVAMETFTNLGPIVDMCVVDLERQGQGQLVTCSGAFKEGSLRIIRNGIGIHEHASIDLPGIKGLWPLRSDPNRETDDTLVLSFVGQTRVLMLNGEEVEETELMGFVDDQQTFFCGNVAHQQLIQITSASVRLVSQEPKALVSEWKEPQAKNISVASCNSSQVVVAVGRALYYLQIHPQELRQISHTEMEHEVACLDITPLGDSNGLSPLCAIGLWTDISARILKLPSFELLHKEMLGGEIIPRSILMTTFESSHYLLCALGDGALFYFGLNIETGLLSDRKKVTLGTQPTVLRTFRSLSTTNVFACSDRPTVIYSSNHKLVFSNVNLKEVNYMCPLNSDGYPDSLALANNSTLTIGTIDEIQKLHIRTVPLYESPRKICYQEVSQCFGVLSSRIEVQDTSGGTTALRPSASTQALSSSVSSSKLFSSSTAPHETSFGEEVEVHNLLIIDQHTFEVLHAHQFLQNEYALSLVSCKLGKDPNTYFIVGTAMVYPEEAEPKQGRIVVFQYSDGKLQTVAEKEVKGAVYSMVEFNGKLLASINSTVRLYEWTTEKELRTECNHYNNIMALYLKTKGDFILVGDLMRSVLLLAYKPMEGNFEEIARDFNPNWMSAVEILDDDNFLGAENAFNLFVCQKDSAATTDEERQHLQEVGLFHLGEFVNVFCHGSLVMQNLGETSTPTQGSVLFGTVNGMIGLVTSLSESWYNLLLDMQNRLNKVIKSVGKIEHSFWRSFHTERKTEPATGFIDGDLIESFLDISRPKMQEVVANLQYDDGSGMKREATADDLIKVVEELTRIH

IC50 (CRBN&DDB1 protein): 406 nM
Structure (SMILES): CCO/C=C/c1cc(F)c([C@@H]2CCC(=O)NC2=O)c(F)c1 [Example 2, (S,E)-3-(4-(2-ethoxyvinyl)-2,6-difluorophenyl)piperidine-2,6-dione]

IC50 (CRBN&DDB1 protein): 26 nM
Structure (SMILES): O=C1CC[C@H](c2c(F)cc(N3CC[C@@H](C(=O)O)C3)cc2F)C(=O)N1 [Example 5, (R)-1-(4-((R)-2,6-dioxopiperidin-3-yl)-3,5-difluorophenyl)pyrrolidine-3-carboxylic acid]

IC50 (CRBN&DDB1 protein): 1070 nM
Structure (SMILES): O=C1CC[C@@H](c2c(F)cc(N3CC[C@@H](C(=O)O)C3)cc2F)C(=O)N1 [Example 6, (R)-1-(4-((S)-2,6-dioxopiperidin-3-yl)-3,5-difluorophenyl)pyrrolidine-3-carboxylic acid]

IC50 (CRBN&DDB1 protein): 22 nM
Structure (SMILES): O=C1CC[C@H](c2c(F)cc(N3CC[C@@H](CO)C3)cc2F)C(=O)N1 [Example 7, (R)-3-(2,6-difluoro-4-((R)-3-(hydroxymethyl)pyrrolidin-1-yl)phenyl)piperidine-2,6-dione]

IC50 (CRBN&DDB1 protein): 64 nM
Structure (SMILES): O=C1CCC(c2c(F)cc(N3CC(CO)C3)cc2F)C(=O)N1 (stereo not drawn) [Example 9, 3-(2,6-difluoro-4-(3-(hydroxymethyl)azetidin-1-yl)phenyl)piperidine-2,6-dione]

IC50 (CRBN&DDB1 protein): 178 nM
Structure (SMILES): O=C1CCC(c2ccc(N3CC[C@@H](C(=O)O)C3)cc2)C(=O)N1 (stereo partly drawn) [Example 12, (3R)-1-(4-(2,6-dioxopiperidin-3-yl)phenyl)pyrrolidine-3-carboxylic acid]

IC50 (CRBN&DDB1 protein): 27 nM
Structure (SMILES): CCO/C=C/c1cc(F)c([C@H]2CCC(=O)NC2=O)c(F)c1 [Example 13, (R,E)-3-(4-(2-ethoxyvinyl)-2,6-difluorophenyl)piperidine-2,6-dione]

IC50 (CRBN&DDB1 protein): 24 nM
Structure (SMILES): CC1(C)CN(c2cc(F)c([C@H]3CCC(=O)NC3=O)c(F)c2)C[C@H]1C(=O)O [Example 14, (S)-1-(4-((R)-2,6-dioxopiperidin-3-yl)-3,5-difluorophenyl)-4,4-dimethylpyrrolidine-3-carboxylic acid]

IC50 (CRBN&DDB1 protein): 239 nM
Structure (SMILES): O=C1CCC(c2ccc(CCO)cc2)C(=O)N1 (stereo not drawn) [Example 15, 3-(4-(2-hydroxyethyl)phenyl)piperidine-2,6-dione]

DC50 [1]: 0.61 nM
DC50 ([2]; Table 1, read-out: LTC DC50): 6.1 nM
Dmax ([2]; Table 1, read-out: LTC Dmax): 91.5%
Structure (SMILES): CCc1cc(Nc2ncc(Br)c(Nc3ccc4nccnc4c3P(C)(C)=O)n2)c(OC)cc1N1CCC(N2CCN(CCc3cc(F)c([C@H]4CCC(=O)NC4=O)c(F)c3)CC2)CC1 [Example 16, (R)-3-(4-(2-(4-(1-(4-((5-bromo-4-((5-(dimethylphosphoryl)quinoxalin-6-yl)amino)pyrimidin-2-yl)amino)-2-ethyl-5-methoxyphenyl)piperidin-4-yl)piperazin-1-yl)ethyl)-2,6-difluorophenyl)piperidine-2,6-dione]
DTC Dmax [1]: 88.65%

DC50 [1]: 6.75 nM
DC50 ([2]; Table 1, read-out: LTC DC50): 45.1 nM
Dmax ([2]; Table 1, read-out: LTC Dmax): 84.6%
Structure (SMILES): CCc1cc(Nc2ncc(Br)c(Nc3ccc4nccnc4c3P(C)(C)=O)n2)c(OC)cc1N1CCC(N2CCN(CCc3cc(F)c([C@@H]4CCC(=O)NC4=O)c(F)c3)CC2)CC1 [Example 17, (S)-3-(4-(2-(4-(1-(4-((5-bromo-4-((5-(dimethylphosphoryl)quinoxalin-6-yl)amino)pyrimidin-2-yl)amino)-2-ethyl-5-methoxyphenyl)piperidin-4-yl)piperazin-1-yl)ethyl)-2,6-difluorophenyl)piperidine-2,6-dione]
DTC Dmax [1]: 64.81%

DC50 [1]: 3.74 nM
DC50 ([2]; Table 1, read-out: LTC DC50): 8.82 nM
Structure (SMILES): CCc1cc(Nc2ncc(Br)c(Nc3ccc4nccnc4c3P(C)(C)=O)n2)c(OC)cc1N1CCC(N2CCN(CCc3cc(F)c(C4CCC(=O)NC4=O)c(F)c3)CC2)CC1 (stereo not drawn) [Example 18, 3-(4-(2-(4-(1-(4-((5-bromo-4-((5-(dimethylphosphoryl)quinoxalin-6-yl)amino)pyrimidin-2-yl)amino)-2-ethyl-5-methoxyphenyl)piperidin-4-yl)piperazin-1-yl)ethyl)-2,6-difluorophenyl)piperidine-2,6-dione]
DTC Dmax [1]: 95.55%

DC50 [1]: 6.87 nM
DC50 ([2]; Table 1, read-out: LTC DC50): 18.2 nM
Structure (SMILES): CCc1cc(Nc2ncc(Br)c(Nc3ccc4nccnc4c3P(C)(C)=O)n2)c(OC)cc1N1CCC(N2CCN(CCc3ccc(C4CCC(=O)NC4=O)cc3)CC2)CC1 (stereo not drawn) [Example 19, 3-(4-(2-(4-(1-(4-((5-bromo-4-((5-(dimethylphosphoryl)quinoxalin-6-yl)amino)pyrimidin-2-yl)amino)-2-ethyl-5-methoxyphenyl)piperidin-4-yl)piperazin-1-yl)ethyl)phenyl)piperidine-2,6-dione]
DTC Dmax [1]: 92.16%

DC50 [2, 4]: 7.8 nM
DC50 [3]: 0.595 nM
Structure (SMILES): CCc1cc(Nc2ncc(Br)c(Nc3ccc4nc(C)ccc4c3P(C)(C)=O)n2)c(OC)cc1N1CCC(N2CCN(C(=O)[C@@H]3CCN(c4ccc([C@H]5CCC(=O)NC5=O)cc4)C3)CC2)CC1 [Example 28, (R)-3-(4-((R)-3-(4-(1-(4-((5-bromo-4-((5-(dimethylphosphoryl)-2-methylquinolin-6-yl)amino)pyrimidin-2-yl)amino)-2-ethyl-5-methoxyphenyl)piperidin-4-yl)piperazine-1-carbonyl)pyrrolidin-1-yl)phenyl)piperidine-2,6-dione]
H1975 # 28 DTC Dmax [3]: 62.25%

DC50 [2, 4]: 85.4 nM
Dmax ([2]; Table 2, read-out: BaF3-LTC Dmax): 77.1%
DC50 [3]: > 10000 nM
Structure (SMILES): CCc1cc(Nc2ncc(Br)c(Nc3ccc4nc(C)ccc4c3P(C)(C)=O)n2)c(OC)cc1N1CCC(N2CCN(C(=O)[C@@H]3CCN(c4ccc([C@@H]5CCC(=O)NC5=O)cc4)C3)CC2)CC1 [Example 29, (S)-3-(4-((R)-3-(4-(1-(4-((5-bromo-4-((5-(dimethylphosphoryl)-2-methylquinolin-6-yl)amino)pyrimidin-2-yl)amino)-2-ethyl-5-methoxyphenyl)piperidin-4-yl)piperazine-1-carbonyl)pyrrolidin-1-yl)phenyl)piperidine-2,6-dione]
H1975 # 28 DTC Dmax [3]: −4.12%
